Entries after “also recorded” stand apart in the source; their conditions may differ. Non-standard residues stand in square brackets, D forms with d. Residues, ends and D or L forms follow the SMILES beside them. *: point of attachment. Gla = N[C@@H](CC(C(=O)O)C(=O)O)C(=O)O; Tos = Cc1ccc(S(=O)(=O)*)cc1
How the values were obtained:
[1] = system: commercial human pool plasma; assay: Coagulation tests (PT, APTT, TT, anti Xa, aPC-resistance) in human pool plasma
Protocol: All coagulation tests as PT (Prothrombin Time), APTT (activated partial thromboplastin time), TT (Thrombin Time), anti Xa, aPC-resistance were carried out in collaboration with the routine coagulation lab in Sheba Medical Center and conducted on a commercial human pool plasma samples.
Coagulation tests were conducted at the Sheba Medical Center (as described in details in the ‘general materials and experimental procedures’ section above) and a commercial pool human plasma was used. PEP6 was applied in various concentrations for injection in vivo and for evaluating the safety and the width of the therapeutic window for treatment.

[2] = system: Long Term Potentiation (LTP), hippocampal slices; assay: In vitro electrophysiology, Long Term Potentiation in hippocampal slices; set-up: species or system mice; conditions: peptides at 10 μM, HFS 100 Hz 1 second
Protocol: The efficacy of the peptides was tested using in vitro electrophysiology. Here the present inventors tested whether these peptides have similar effects as aPC in enhancing Long Term Potentiation. Briefly, mice (10-12 weeks of age) were rapidly decapitated, the hippocampus was removed, and 400 μm slices were prepared using a vibroslicer. Slices were incubated for 1.5 hours in a humidified, carbogenated (5% CO2 and 95% O2) gas atmosphere at 33±1° C. and were perfused with ACSF [containing (in mm) 124 NaCl, 2 KCl, 26 NaHCO3, 1.24 KH2PO4, 2.5 CaCl2, 2 MgSO4, and 10 glucose, pH 7.4] in a standard interface chamber. Recordings were made with a glass pipette containing 0.75 m NaCl (4 MΩ) placed in the stratum radiatum CA1.
Stimulation was evoked using a Master 8 pulse stimulator (A.M.P.I., Jerusalem, Israel) and was delivered through a bipolar nichrome electrode placed at a side of the recording electrode. LTP was induced by high-frequency stimulation (HFS) consisting of 100 pulses at twice the test intensity, delivered at a frequency of 100 Hz (100 Hz, 1 second). Before applying the tetanic stimulation, baseline values were recorded at a frequency of 0.033 Hz. Responses were digitized at 5 kHz and stored on a computer. Off-line analysis and data acquisition were performed using the LTP Program (Anderson and Collingridge, 2001). Peptides were tested at a concentration of 10 μM.

Compound	Effect in APTT (activated partial thromboplastin time) test [1]	Effect in PT (Prothrombin Time) test [1]	Effect on coagulation tests (all conducted tests) ([1]; any concentration tested)	Effect on Long Term Potentiation (LTP) [2]
Cc1ccc(S(=O)(=O)N[C@@H](CC(C(=O)O)C(=O)O)C(=O)N[C@@H](CCC(=O)O)C(=O)N[C@@H](C)C(=O)N[C@@H](CCCNC(=N)N)C(N)=O)cc1 [Pep6, Tos-{Gla}-EAR-NH2] (Tos-[Gla]EAR-NH2)	small but statistically significant effect	small but statistically significant effect	either no effect or clinical-irrelevant effect; also recorded: did not affect	
Tos-{Gla}-EAK-NH2 (Tos-[Gla]EAK-NH2; SMILES Cc1ccc(S(=O)(=O)N[C@@H](CC(C(=O)O)C(=O)O)C(=O)N[C@@H](CCC(=O)O)C(=O)N[C@@H](C)C(=O)N[C@@H](CCCCN)C(N)=O)cc1) [Pep5, N-terminal Tosyl, C-terminal amide, γ-carboxylated Glu]				enhanced
Tos-{Gla}-EAK-{Gla}-IF-NH2 (Tos-[Gla]EAK[Gla]IF-NH2; SMILES CC[C@H](C)[C@H](NC(=O)[C@H](CC(C(=O)O)C(=O)O)NC(=O)[C@H](CCCCN)NC(=O)[C@H](C)NC(=O)[C@H](CCC(=O)O)NC(=O)[C@H](CC(C(=O)O)C(=O)O)NS(=O)(=O)c1ccc(C)cc1)C(=O)N[C@@H](Cc1ccccc1)C(N)=O) [Pep7, N-terminal Tosyl, C-terminal amide, γ-carboxylated Glu]				enhanced
Tos-{Gla}-EAR-{Gla}-IF-NH2 (Tos-[Gla]EAR[Gla]IF-NH2; SMILES CC[C@H](C)[C@H](NC(=O)[C@H](CC(C(=O)O)C(=O)O)NC(=O)[C@H](CCCNC(=N)N)NC(=O)[C@H](C)NC(=O)[C@H](CCC(=O)O)NC(=O)[C@H](CC(C(=O)O)C(=O)O)NS(=O)(=O)c1ccc(C)cc1)C(=O)N[C@@H](Cc1ccccc1)C(N)=O) [Pep8, N-terminal Tosyl, C-terminal amide, γ-carboxylated Glu]				enhanced
